Assays:
DBA2 = DBA2 % Protection; format: in vivo

SMILES | melting point [°C] | DBA2 % Protection 1 Hr (DBA2) [%] | DBA2 % Protection 2 Hr (DBA2) [%]
CC(C)CC(CN)Cc1noc(=S)[nH]1.Cl (centres unmarked) | 183 to 185 | – | –
CC(C)CC(CN)Cc1noc(=S)[nH]1 (centres unmarked) | – | 0 | 0
CC(C)CC(CN)CP(=O)(O)O (centres unmarked) [PO3H2, (2-Aminomethyl-4-methyl-pentyl)-phosphonic acid] | – | 0 | 0

From patent US6521650B1, “Amines as pharmaceutical agents” (Pfizer, Inc., priority 1997, dated 2003)
